Like-named read-outs stand apart in the source and are kept apart here.
Key:
Format in all cases: cell-based
[1] = tested on: SKBR3 (PI3Kα wild type) cells; experiment: CellTiter-Glo 2.0 luminescent cell viability assay, 72 hours, SKBR3 cells
Method in brief: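 Viability measured via CTG luminescence following roughly 72 hours of compound exposure at 37° C. Dosing used a 10 um starting concentration diluted 1:4 over 10 points; percent-of-vehicle data fitted with a variable-slope four-parameter model for IC50.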

[2] = tested on: T47D (PI3Kα H1047R mutant) cells; experiment: CellTiter-Glo 2.0 luminescent cell viability assay, 72 hours, T47D cells
Method in brief: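 Viability was measured by CellTiter-Glo 2.0 luminescence after approximately 72 h of compound exposure at 37° C. Plating was 1000 cells per well the day before dosing, with ten 1:4 dilutions from a 10 µM top concentration. Values as percent of vehicle were fitted by variable-slope log(inhibitor) regression to give IC50.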

[3] = tested on: T47D (PI3Kα H1047R mutant) cells; experiment: Inhibition of pAKT formation, alphaLISA SureFire Ultra AKT 1/2/3 (pS473), T47D cells; settings: Homo sapiens, T47D
Protocol: The ability of a compound of Formula (I) to inhibit the formation of pAKT was measured using alphaLISA Surefire Ultra AKT 1/2/3 (pS473) Assay Kit (#ALSU-PAKT-B50K) was obtained from Perkin Elmer (Waltham, MA).
To prepare assay plates for pAKT alphaLISA assays, cells were trypsinized, resuspended in fresh media, and viable cells were counted utilizing trypan blue exclusion. Prior to seeding, cells were washed with PBS and resuspended in HBSS (Gibco, #14025092). T47D (12,000/w), SKBR3(12,000/w), or MKN1(24,000/w) cells were seeded at 12 μl per well in a solid white flat bottom 384 cell culture plate (Perkin Elmer #6007680).
Immediately after seeding, cells were dosed using an Echo Liquid Handler (Beckman Coulter) with compounds at a […] starting concentration and serially diluted (1:4) for a total of 10 concentrations. […] Cells were incubated with the compounds (solubilized in DMSO) for approximately one hour or 24 hours at 37° C. After one hour (or 24 hours) of treatment, cells were lysed with 3 μl of the 5× lysis buffer (provided and incubated at room temperature for 15 min on a microtiter plate shaker). Once cells were sufficiently lysed, 7.5 μl of the acceptor bead mix (made using the manufacturers recommended dilutions) was added to each well and left on the microtiter plate shaker for 1 min prior to incubating plates at room temperature for one hour, in the absence of light. After one hour of incubation with the acceptor bead mix, 7.5 μl of the donor bead mix (made using the manufacturers recommended dilutions) was added to each well and left on the microtiter plate shaker for 1 min prior to incubating plates at room temperature overnight in the absence of light. Plates were then imaged the following day using a CLARIOstar microplate reader (BMG Labtech, Germany).
Percent of control values were calculated by subtracting the average signal from the positive control (alpelisib) treated wells from all treated wells (including DMSO control wells) and then divided by the average signal from the vehicle DMSO treated control wells. Percent of vehicle control values were plotted as log (inhibitor) vs. response-Variable slope (four parameters) for curve fitting and IC50 values were determined using XLfit.
Key: N.D. =not determined
Inhibition of pAKT in T47D (PI3Kα H1047R mutant) cells by Exemplary Compounds of Formula (I)

[4] = Homo sapiens, SK-BR-3, 72 h, SKBR3 (PI3Kα wild type) cells, CellTiter-Glo, approximately 72 hours, read-out: SKBR3 (WT) Viability IC50
[5] = Homo sapiens, T47D, 72 h, T47D (PI3Kα H1047R mutant) cells, CellTiter-Glo, approximately 72 hours, read-out: T47D (H1047R mutant) Viability IC50
[6] = T47D (PI3Kα H1047R mutant) cells, inhibition of pAKT (pS473) formation, approximately one hour or 24 hours treatment, read-out: T47D pAKT (H1047R mutant) IC50
[7] = SKBR3 (PI3Kα wild type) cells, CellTiter-Glo, approximately 72 hours, read-out: SKBR3 (WT) Viability IC50
[8] = T47D (PI3Kα H1047R mutant) cells, CellTiter-Glo, approximately 72 hours, read-out: T47D (H1047R mutant) Viability IC50

| SMILES | IC50 [1, 4] [nM] | IC50 [2, 5] [nM] | IC50 [3, 6] [nM] | IC50 [1, 7] [nM] | IC50 [2, 8] [nM] | IC50 ([1]; Homo sapiens, SK-BR-3, 72 h, read-out: SKBR3 (WT) Viability IC50 (nM)) [nM] | IC50 ([2]; Homo sapiens, T47D, 72 h, read-out: T47D (H1047R mutant) Viability IC50 (nM)) [nM] | IC50 ([3]; read-out: T47D pAKT (H1047R mutant) IC50 (nM)) [nM] |
| --- | --- | --- | --- | --- | --- | --- | --- | --- |
| Cc1cc([C@@H](C)Nc2ccccc2C(=O)O)c2nc(N3CC[C@@H]3CF)c(C#N)c(=O)n2c1 (single isomer, unassigned) [Example 10-53] | > 10000 | 77.2 | 4.35 | – | – | – | – | – |
| Cc1cc([C@@H](C)Nc2ccccc2C(=O)O)c2nc(N3CC[C@H]3CF)c(C#N)c(=O)n2c1 (single isomer, unassigned) [Example 10-54] | > 10000 | 72.2 | 3.36 | – | – | – | – | – |
| Cc1cc([C@@H](C)Nc2ccccc2C(=O)O)c2nc(N3CC[C@@H]3C)c(C#N)c(=O)n2c1 (single isomer, unassigned) [Example 10-95] | > 10000 | 111 | 1.38 | – | – | – | – | – |
| Cc1cc([C@@H](C)Nc2ccccc2C(=O)O)c2nc(N3CC[C@H]3C)c(C#N)c(=O)n2c1 (single isomer, unassigned) [Example 10-96] | > 10000 | 84.4 | 0.905 | – | – | – | – | – |
| Cc1cc([C@@H](C)Nc2ccccc2C(=O)O)c2nc(N3CCN(c4ccc(C#N)cc4)CC3)c(C)c(=O)n2c1 [Example 10-1, (R)-2-((1-(2-(4-(4-cyanophenyl)piperazin-1-yl)-3.7-dimethyl-4-oxo-4H-pyrido[1,2-a]pyrimidin-9-yl)ethyl)amino)benzoic acid] | 9890 | 38.5 | 2.27 | – | – | – | – | – |
| Cc1cc([C@@H](C)Nc2ccc(C)nc2C(=O)O)c2nc(N3Cc4ccccc4C3)c(C#N)c(=O)n2c1 [Example 10-5, (R)-3-((1-(3-cyano-2-(isoindolin-2-yl)-7-methyl-4-oxo-4H-pyrido[1,2-a]pyrimidin-9-yl)ethyl)amino)-6-methylpicolinic acid] | 2190 | 13.6 | 0.425 | – | – | – | – | – |
| CCc1cc([C@@H](C)Nc2ccccc2C(=O)O)c2nc(N3Cc4ccccc4C3)c(C#N)c(=O)n2c1 [Example 10-10, (R)-2-((1-(3-cyano-7-ethyl-2-(isoindolin-2-yl)-4-oxo-4H-pyrido[1,2-a]pyrimidin-9-yl)ethyl)amino)benzoic acid] | – | – | 1.21 | 7450 | 29.3 | – | – | – |
| C[C@@H](Nc1ccccc1C(=O)O)c1cc(Cl)cn2c(=O)c(C#N)c(N3Cc4ccccc4C3)nc12 [Example 10-11, (R)-2-((1-(7-chloro-3-cyano-2-(isoindolin-2-yl)-4-oxo-4H-pyrido[1,2-a]pyrimidin-9-yl)ethyl)amino)benzoic acid] | 7770 | 30.5 | 1.71 | – | – | – | – | – |
| Cc1cc([C@@H](C)Nc2ccccc2C(=O)O)c2nc(N3CCC(F)(F)CC3)c(Br)c(=O)n2c1 [Example 10-12, (R)-2-((1-(3-bromo-2-(4,4-difluoropiperidin-1-yl)-7-methyl-4-oxo-4H-pyrido[1,2-a]pyrimidin-9-yl)ethyl)amino)benzoic acid] | > 10000 | 31 | 0.639 | – | – | – | – | – |
| Cc1cc([C@@H](C)Nc2ccccc2C(=O)O)c2nc(N3CCN(c4cn(C)nc4C(F)(F)F)CC3)c(C)c(=O)n2c1 [Example 10-13, (R)-2-((1-(3,7-dimethyl-2-(4-(1-methyl-3-(trifluoromethyl)-1H-pyrazol-4-yl)piperazin-1-yl)-4-oxo-4H-pyrido[1,2-a]pyrimidin-9-yl)ethyl)amino)benzoic acid] | 5890 | 32.8 | 1 | – | – | – | – | – |
| Cc1cc([C@@H](C)Nc2ccc(Cl)nc2C(=O)O)c2nc(N3Cc4ccccc4C3)c(C#N)c(=O)n2c1 [Example 10-14, (R)-6-chloro-3-((1-(3-cyano-2-(isoindolin-2-yl)-7-methyl-4-oxo-4H-pyrido[1,2-a]pyrimidin-9-yl)ethyl)amino)picolinic acid] | 8790 | 33.1 | 2.34 | – | – | – | – | – |
| Cc1cc([C@@H](C)Nc2ccccc2C(=O)O)c2nc(NCC3CC3)c(C#N)c(=O)n2c1 [Example 10-15, (R)-2-((1-(3-cyano-2-((cyclopropylmethyl)amino)-7-methyl-4-oxo-4H-pyrido[1,2-a]pyrimidin-9-yl)ethyl)amino)benzoic acid] | > 10000 | 36.4 | 0.853 | – | – | – | – | – |
| Cc1cc([C@@H](C)Nc2ccccc2C(=O)O)c2nc(N3CCCC(F)(F)C3)c(C)c(=O)n2c1 [Example 10-18, (R)-2-((1-(2-(3,3-difluoropiperidin-1-yl)-3,7-dimethyl-4-oxo-4H-pyrido[1,2-a]pyrimidin-9-yl)ethyl)amino)benzoic acid] | > 10000 | 38.4 | 2.01 | – | – | – | – | – |
| Cc1cc([C@@H](C)Nc2ccccc2C(=O)O)c2nc(N3CCN(c4ccc(C#N)c5cnccc45)CC3)c(C)c(=O)n2c1 [Example 10-19, (R)-2-((1-(2-(4-(8-cyanoisoquinolin-5-yl)piperazin-1-yl)-3,7-dimethyl-4-oxo-4H-pyrido[1,2-a]pyrimidin-9-yl)ethyl)amino)benzoic acid] | – | – | – | – | – | 7640 | 41.4 | 0.244 |
| Cc1cc([C@@H](C)Nc2ccccc2C(=O)O)c2nc(N3CCN(c4ccc(C#N)cc4)CC3C)c(C)c(=O)n2c1 (stereo partly drawn) [Example 10-20, 2-(((1R)-1-(2-(4-(4-cyanophenyl)-2-methylpiperazin-1-yl)-3,7-dimethyl-4-oxo-4H-pyrido[1,2-a]pyrimidin-9-yl)ethyl)amino)benzoic acid] | – | – | 1.6 | 7450 | 42.7 | – | – | – |
| Cc1cc([C@@H](C)Nc2ccccc2C(=O)O)c2nc(N3CCN(c4ccc(C#N)cc4)[C@@H](C)C3)c(C)c(=O)n2c1 [Example 10-21, 2-(((R)-1-(2-((S)-4-(4-cyanophenyl)-3-methylpiperazin-1-yl)-3,7-dimethyl-4-oxo-4H-pyrido[1,2-a]pyrimidin-9-yl)ethyl)amino)benzoic acid] | 8070 | 45.8 | 2.34 | – | – | – | – | – |
| Cc1cc([C@@H](C)Nc2ccccc2C(=O)O)c2nc(N3CCN(c4ccc(C#N)cc4)C[C@H]3C)c(C)c(=O)n2c1 [Example 10-22, 2-(((R)-1-(2-((R)-4-(4-cyanophenyl)-2-methylpiperazin-1-yl)-3,7-dimethyl-4-oxo-4H-pyrido[1,2-a]pyrimidin-9-yl)ethyl)amino)benzoic acid] | 5540 | 48 | 3.85 | – | – | – | – | – |
| Cc1cc([C@@H](C)Nc2ccccc2C(=O)O)c2nc(N3CCN(c4ccc(C#N)cc4)[C@H](C)C3)c(C)c(=O)n2c1 [Example 10-24, 2-(((R)-1-(2-((R)-4-(4-cyanophenyl)-3-methylpiperazin-1-yl)-3,7-dimethyl-4-oxo-4H-pyrido[1,2-a]pyrimidin-9-yl)ethyl)amino)benzoic acid] | > 10000 | 48.6 | 5.49 | – | – | – | – | – |
| C[C@@H](Nc1ccccc1C(=O)O)c1cc(F)cn2c(=O)c(C#N)c(N3CCC(F)(F)CC3)nc12 [Example 10-25, (R)-2-((1-(3-cyano-2-(4,4-difluoropiperidin-1-yl)-7-fluoro-4-oxo-4H-pyrido[1,2-a]pyrimidin-9-yl)ethyl)amino)benzoic acid] | > 10000 | 49.6 | 4.69 | – | – | – | – | – |
| Cc1cc([C@@H](C)Nc2ccc(F)nc2C(=O)O)c2nc(N3Cc4ccccc4C3)c(C)c(=O)n2c1 [Example 10-29, (R)-6-fluoro-3-((1-(2-(isoindolin-2-yl)-3,7-dimethyl-4-oxo-4H-pyrido[1,2-a]pyrimidin-9-yl)ethyl)amino)picolinic acid] | – | – | 0.54 | > 10000 | 53.9 | – | – | – |
